Results: patent US11497737B2, “Pharmaceutical compositions of albumin and rapamycin” (Abraxis BioScience, LLC, priority 2019, dated 2022)
Values after ≈ are worked out from the molar mass of the structure shown.

Key:
[1] = Rapamycin solubility from light scattering intensity of diluted reconstituted nanoparticle suspension; format: physicochemical; conditions: saline or isotonic; in 0.9% saline solution; from light scattering intensity vs rapamycin concentration of reconstituted albumin-rapamycin nanoparticle suspension; read-out: solubility point of rapamycin
Procedure: FIG. 5 depicts light scattering intensity (kcps) as a function of rapamycin concentration from a reconstituted suspension of the pharmaceutical composition comprising nanoparticles comprising rapamycin and albumin. When the suspensions were diluted to concentrations below the rapamycin solubility, the nanoparticles completely disintegrated and dissolved (see left 7-8 data points on graph). However, when the suspensions were diluted to concentrations above the rapamycin solubility, the nanoparticles only partially disintegrated and dissolved, and light scattering was observed (see right 4-5 data points on graph).
The albumin-based rapamycin nanoparticle compositions described herein in some embodiments have a particular in vitro release kinetic behavior. […] In this assay, the particle size and intensity of light scattered by the particles are measured by DLS over time following a reduction in particle concentration. In some embodiments, the release kinetics are determined by diluting the pharmaceutical composition in a 0.9% saline solution. In some embodiments, the release kinetics are determined by diluting the pharmaceutical composition in a 5% human albumin solution.
In some embodiments, the in vitro release is determined using the dynamic light scattering method. […] In some embodiments, the intensity of light scattered is measured at a scattering angle of 173°.

[2] = Solubility of rapamycin in reconstituted suspension by light scattering; format: physicochemical; conditions: saline or isotonic; reconstituted suspension of the pharmaceutical composition in 0.9% saline; mean±95% CI
Procedure: The change in intensity of light scattering in diluted samples of the reconstituted suspension of the pharmaceutical composition was used as a measure to determine the in vitro dissolution or disintegration of the nanoparticles, which implicates the release of rapamycin from the nanoparticles of the pharmaceutical composition. The percent of rapamycin released at any given time was determined using the light scattering intensity at zero time and at time t. The intensity of light scattering, measured by the Malvern Zetasizer Nano, is relative to the number of nanoparticles present in the pharmaceutical composition. […] If the release of rapamycin from the nanoparticles is controlled by the solubility limit and the reconstituted suspension is diluted to a concentration within the solubility range, then the nanoparticles should rapidly dissolve, causing the rapamycin to be readily released from the nanoparticles of the pharmaceutical composition, and the light scattering intensity will approach zero.
When the suspensions were diluted to concentrations above the rapamycin solubility, the nanoparticles only partially disintegrated and dissolved, and light scattering was observed. […] The solubility of rapamycin was determined as the concentration at which the intensity of the scattered light begins to increase linearly.

## CO[C@H]1C[C@@H]2CC[C@@H](C)[C@@](O)(O2)C(=O)C(=O)N2CCCC[C@H]2C(=O)O[C@H]([C@H](C)C[C@@H]2CC[C@@H](O)[C@H](OC)C2)CC(=O)[C@H](C)/C=C(\C)[C@@H](O)[C@@H](OC)C(=O)[C@H](C)C[C@H](C)/C=C/C=C/C=C/1C [rapamycin]
[1]
  solubility: 0.0161 ± 0.0018 mg/mL (≈ 17.6 µM)
[2]
  solubility: 0.0161 ± 0.0018 mg/mL (≈ 17.6 µM)
